In patent US8822463B2, “Methylcyclohexane derivatives and uses thereof” (Sk Biopharmaceuticals Co., Ltd., priority 2010, dated 2014):
Where a name gives a salt, the structure may show the parent alone.

Key:
[1] = system: LPS-induced NO production in mouse microglia (BV2); test: LPS-induced NO production inhibition test, mouse microglia (BV2); type: cell-based; conditions: BV-2, BV2 cells, 20 ng/ml LPS, 24 hours, Griess reagent
Experimental: (§1) Mouse monocytes (RAW) and mouse microglia (BV2) cells were cultured on a 96-well transparent plate (Nunc) in such a way that each of the wells contained 60,000 and 35,000 cells respectively. After 18 hours, when stabilized, the cells were treated with lipopolysaccharide (Sigma, USA, Cat No. L2630) in a morbid state derived from 20 ng/ml of Escherichia coli O111:B4 and 4 different concentrations (50 uM, 12.5 uM, 3.1 uM, and 0.8 uM) of the compounds synthesized according to Examples 1 to 55. Then, the cells were cultured for 24 hours, and a concentration of increased NO was measured. The NO concentration was determined by measuring absorption at a wavelength of 540 nm after a Griess reagent including 0.1% N-(1-naphthyl)ethylenediamine dihydrochloride, 1% sulfanilamide, and 2.5% phosphoric acid were added thereto.

[2] = system: LPS-induced NO production in mouse monocytes (RAW); test: LPS-induced NO production inhibition test, mouse monocytes (RAW); type: cell-based; conditions: Monocyte, RAW cells, 20 ng/ml LPS, 24 hours, Griess reagent
Experimental: as §1

Row | Compound | IC50 [1] | IC50 [2]
1 | O=C(NC1CCC(COC(=O)N2CCCC2)CC1)OCc1cc(Cl)nc(Cl)c1 (stereo not drawn) [Example 45, pyrrolidine-1-carboxylic acid 4-(2,6-dichloro-pyridin-4-ylmethoxycarbonylamino)-cyclohexylmethyl ester] | 7.5 µM | 9.9 µM
2 | O=C(OCC1CCC(OCc2cccc[n+]2[O-])CC1)N1CCCC1 (stereo not drawn) [Example 36, pyrrolidine-1-carboxylic acid 4-(1-oxy-pyridin-2-ylmethoxy)-cyclohexylmethyl ester] | > 50 µM | > 50 µM
3 | O=C(NC1CCC(COC(=O)N2CCCC2)CC1)OCc1cccnc1Cl (stereo not drawn) [Example 44, pyrrolidine-1-carboxylic acid 4-(2-chloro-pyridin-3-ylmethoxycarbonylamino)-cyclohexylmethyl ester] | 16.8 µM | 21.7 µM
4 | O=C(NCCc1ccccn1)OC1CCC(COC(=O)N2CCCC2)CC1 (stereo not drawn) [Example 2, pyrrolidine-1-carboxylic acid 4-(2-pyridin-2-yl-ethylcarbamoyloxy)-cyclohexylmethyl ester] | 40.1 µM | > 50 µM
5 | O=C(NCc1ccc[n+]([O-])c1)OC1CCC(COC(=O)N2CCCC2)CC1 (stereo not drawn) [Example 12, pyrrolidine-1-carboxylic acid 4-(1-oxy-pyridin-3-ylmethylcarbamoyloxy)-cyclohexylmethyl ester] | > 50 µM | > 50 µM
6 | O=C(Nc1cc(Cl)nc(Cl)c1)OC1CCC(COC(=O)N2CCCC2)CC1 (stereo not drawn) [Example 24, pyrrolidine-1-carboxylic acid 4-(2,6-dichloro-pyridin-4-ylcarbamoyloxy)-cyclohexylmethyl ester] | > 50 µM | > 50 µM
7 | O=C(NC1CCC(COC(=O)N2CCCC2)CC1)OCc1ccc[n+]([O-])c1 (stereo not drawn) [Example 52, pyrrolidine-1-carboxylic acid 4-(1-oxy-pyridin-3-ylmethoxycarbonylamino)-cyclohexylmethyl ester] | > 50 µM | 22.3 µM
8 | O=C(Cc1ccccn1)OC1CCC(COC(=O)N2CCCC2)CC1 (stereo not drawn) [Example 33, pyrrolidine-1-carboxylic acid 4-(2-pyridin-2-yl-acetoxy)-cyclohexylmethyl ester] | > 50 µM | > 50 µM
9 | O=C(NCc1ccccn1)OC1CCC(COC(=O)N2CCNCC2)CC1 (stereo not drawn) [Example 28, HCl salt] | 44.8 µM | > 50 µM
10 | O=C(NCCc1ccccc1)OC1CCC(COC(=O)N2CCCC2)CC1 (stereo not drawn) [Example 1, pyrrolidine-1-carboxylic acid 4-phenethylcarbamoyloxy-cyclohexylmethyl ester] | 19.9 µM | 27.9 µM
11 | O=C(NCc1ccncc1)OC1CCC(COC(=O)N2CCCC2)CC1 (stereo not drawn) [Example 9, pyrrolidine-1-carboxylic acid 4-(pyridin-4-ylmethylcarbamoyloxy)-cyclohexylmethyl ester] | > 50 µM | > 50 µM
12 | O=C(NC1CCC(COC(=O)N2CCCC2)CC1)OCc1cccc(Cl)n1 (stereo not drawn) [Example 46, pyrrolidine-1-carboxylic acid 4-(6-chloro-pyridin-2-ylmethoxycarbonylamino)-cyclohexylmethyl ester] | 26.3 µM | 32 µM
13 | Cc1ncccc1COC(=O)NC1CCC(COC(=O)N2CCCC2)CC1 (stereo not drawn) [Example 48, pyrrolidine-1-carboxylic acid 4-(2-methyl-pyridin-3-ylmethoxycarbonylamino)-cyclohexylmethyl ester] | 10.2 µM | 13.5 µM
14 | O=C(NCc1cccc(Cl)n1)OC1CCC(COC(=O)N2CCCC2)CC1 (stereo not drawn) [Example 14, pyrrolidine-1-carboxylic acid 4-(6-chloro-pyridin-2-ylmethylcarbamoyloxy)-cyclohexylmethyl ester] | 22.3 µM | 21.7 µM
15 | O=C(NC1CCC(COC(=O)N2CCCC2)CC1)OCc1cc[n+]([O-])cc1 (stereo not drawn) [Example 53, pyrrolidine-1-carboxylic acid 4-(1-oxy-pyridin-4-ylmethoxycarbonylamino)-cyclohexylmethyl ester] | > 50 µM | 33.9 µM
16 | O=C(NCc1ccc(C(F)(F)F)nc1)OC1CCC(COC(=O)N2CCCC2)CC1 (stereo not drawn) [Example 19, pyrrolidine-1-carboxylic acid 4-(6-trifluoromethyl-pyridin-3-ylmethylcarbamoyloxy)-cyclohexylmethyl ester] | 13.8 µM | 11.1 µM
17 | O=C(NC1CCC(COC(=O)N2CCCC2)CC1)OCc1ccc(Cl)nc1 (stereo not drawn) [Example 47, pyrrolidine-1-carboxylic acid 4-(6-chloro-pyridin-3-ylmethoxycarbonylamino)-cyclohexylmethyl ester] | 21.1 µM | 13.1 µM
18 | O=C(NC1CCC(COC(=O)N2CCCC2)CC1)OCc1cccc[n+]1[O-] (stereo not drawn) [Example 51, pyrrolidine-1-carboxylic acid 4-(1-oxy-pyridin-2-ylmethoxycarbonylamino)-cyclohexylmethyl ester] | > 50 µM | 50 µM

Row | Compound | IC50 [1] | IC50 [2]
19 | O=C(NC1CCC(COC(=O)N2CCCC2)CC1)OCc1ccnc(Cl)c1 (stereo not drawn) [Example 43, pyrrolidine-1-carboxylic acid 4-(2-chloro-pyridin-4-ylmethoxycarbonylamino)-cyclohexylmethyl ester] | 12 µM | 10.5 µM
20 | CN(Cc1ccccn1)C(=O)OC1CCC(COC(=O)N2CCCC2)CC1 (stereo not drawn) [Example 10, pyrrolidine-1-carboxylic acid 4-(methyl-pyridin-2-ylmethyl-carbamoyloxy)-cyclohexylmethyl ester] | 5.3 µM | 46.1 µM
21 | COc1ccc(CCNC2CCC(COC(=O)N3CCCC3)CC2)cc1 (stereo not drawn) [Example 39, pyrrolidine-1-carboxylic acid 4-[2-(4-methoxy-phenyl)-ethylamino]-cyclohexylmethyl ester HCl salt] | > 50 µM | > 50 µM
22 | Cc1cccc(COC(=O)NC2CCC(COC(=O)N3CCCC3)CC2)n1 (stereo not drawn) [Example 49, pyrrolidine-1-carboxylic acid 4-(6-methyl-pyridin-2-ylmethoxycarbonylamino)-cyclohexylmethyl ester] | 10.2 µM | 12 µM
23 | O=C(NC1CCC(COC(=O)N2CCCC2)CC1)OCc1ccc(C(F)(F)F)nc1 (stereo not drawn) [Example 50, pyrrolidine-1-carboxylic acid 4-(6-trifluoromethyl-pyridin-3-ylmethoxycarbonylamino)-cyclohexylmethyl ester] | 14.2 µM | 5.7 µM
24 | O=C(NCCc1ccncc1)OC1CCC(COC(=O)N2CCCC2)CC1 (stereo not drawn) [Example 4, pyrrolidine-1-carboxylic acid 4-(2-pyridin-4-yl-ethylcarbamoyloxy)-cyclohexylmethyl ester] | 32.9 µM | 30.3 µM
25 | Cc1cccc(NC(=O)OC2CCC(COC(=O)N3CCCC3)CC2)n1 (stereo not drawn) [Example 22, pyrrolidine-1-carboxylic acid 4-(6-methyl-pyridin-2-ylcarbamoyloxy)-cyclohexylmethyl ester] | 21.7 µM | 35.8 µM
26 | O=C(OC1CCC(COC(=O)N2CCCC2)CC1)c1cccnc1 (stereo not drawn) [Example 31, pyridine-3-carboxylic acid 4-(pyrrolidine-1-carbonyloxymethyl)-cyclohexyl ester] | 21.1 µM | > 50 µM
27 | O=C(OCC1CCC(NCc2ccccc2)CC1)N1CCCC1 (stereo not drawn) [Example 37, pyrrolidine-1-carboxylic acid 4-benzylaminocyclohexylmethyl ester HCl salt] | > 50 µM | 46.1 µM
28 | O=C(OC1CCC(COC(=O)N2CCCC2)CC1)c1ccncc1 (stereo not drawn) [Example 32, pyridine-4-carboxylic acid 4-(pyrrolidine-1-carbonyloxymethyl)-cyclohexyl ester] | 34.8 µM | 21.1 µM
29 | CN1CCN(C(=O)OCC2CCC(OC(=O)NCc3ccccc3)CC2)CC1 (stereo not drawn) [Example 29, 4-methyl-piperazine-1-carboxylic acid 4-benzylcarbamoyloxy-cyclohexylmethyl ester] | > 50 µM | 46.1 µM
30 | O=C(NCc1cccc[n+]1[O-])OC1CCC(COC(=O)N2CCCC2)CC1 (stereo not drawn) [Example 13, pyrrolidine-1-carboxylic acid 4-(1-oxy-pyridin-2-ylmethylcarbamoyloxy)-cyclohexylmethyl ester] | > 50 µM | 27.9 µM
31 | O=C(NCc1ccccn1)OC1CCC(COC(=O)N2CCOCC2)CC1 (stereo not drawn) [Example 27] | > 50 µM | 50 µM
32 | O=C(NC1CCC(COC(=O)N2CCCC2)CC1)OCc1cccnc1 (stereo not drawn) [Example 41, pyrrolidine-1-carboxylic acid 4-(pyridin-3-ylmethoxycarbonylamino)-cyclohexylmethyl ester] | > 50 µM | 50 µM
33 | O=C(OCC1CCC(OCc2ccccn2)CC1)N1CCCC1 (stereo not drawn) [Example 35, pyrrolidine-1-carboxylic acid 4-(pyridin-2-ylmethoxy)-cyclohexylmethyl ester] | 50 µM | > 50 µM
34 | O=C(NCCc1cccnc1)OC1CCC(COC(=O)N2CCCC2)CC1 (stereo not drawn) [Example 3, pyrrolidine-1-carboxylic acid 4-(2-pyridin-3-yl-ethylcarbamoyloxy)-cyclohexylmethyl ester] | 30.3 µM | 22.3 µM
35 | O=C(OCC1CCC(OCc2ccccc2)CC1)N1CCCC1 (stereo not drawn) [Example 34, pyrrolidine-1-carboxylic acid 4-benzyloxy-cyclohexylmethyl ester] | 27.1 µM | 24.9 µM
36 | O=C(NCc1cc[n+]([O-])cc1)OC1CCC(COC(=O)N2CCCC2)CC1 (stereo not drawn) [Example 11, pyrrolidine-1-carboxylic acid 4-(1-oxy-pyridin-4-ylmethylcarbamoyloxy)-cyclohexylmethyl ester] | > 50 µM | 10.2 µM
